Source: ChEMBL document CHEMBL4813963, “Discovery of pyrazolo-thieno[3,2-d]pyrimidinylamino-phenyl acetamides as type-II pan-tropomyosin receptor kinase (TRK) inhibitors: Design, synthesis, and biological evaluation” (Eur J Med Chem, 2021)

What was measured:
[1] = target: T1, High affinity nerve growth factor receptor (Homo sapiens, UniProt P04629); assay: Inhibition of recombinant His-tagged human TRKA (441 to 796 residues) expressed in baculovirus expression system using 5-FAM-EEPLYWSFPAKKK-CONH2 as substrate preincubated for 1 hr followed by substrate addition in presence of ATP by mobility shift assay
Target sequence in this assay (P04629 whole entry, the tested form may be a part): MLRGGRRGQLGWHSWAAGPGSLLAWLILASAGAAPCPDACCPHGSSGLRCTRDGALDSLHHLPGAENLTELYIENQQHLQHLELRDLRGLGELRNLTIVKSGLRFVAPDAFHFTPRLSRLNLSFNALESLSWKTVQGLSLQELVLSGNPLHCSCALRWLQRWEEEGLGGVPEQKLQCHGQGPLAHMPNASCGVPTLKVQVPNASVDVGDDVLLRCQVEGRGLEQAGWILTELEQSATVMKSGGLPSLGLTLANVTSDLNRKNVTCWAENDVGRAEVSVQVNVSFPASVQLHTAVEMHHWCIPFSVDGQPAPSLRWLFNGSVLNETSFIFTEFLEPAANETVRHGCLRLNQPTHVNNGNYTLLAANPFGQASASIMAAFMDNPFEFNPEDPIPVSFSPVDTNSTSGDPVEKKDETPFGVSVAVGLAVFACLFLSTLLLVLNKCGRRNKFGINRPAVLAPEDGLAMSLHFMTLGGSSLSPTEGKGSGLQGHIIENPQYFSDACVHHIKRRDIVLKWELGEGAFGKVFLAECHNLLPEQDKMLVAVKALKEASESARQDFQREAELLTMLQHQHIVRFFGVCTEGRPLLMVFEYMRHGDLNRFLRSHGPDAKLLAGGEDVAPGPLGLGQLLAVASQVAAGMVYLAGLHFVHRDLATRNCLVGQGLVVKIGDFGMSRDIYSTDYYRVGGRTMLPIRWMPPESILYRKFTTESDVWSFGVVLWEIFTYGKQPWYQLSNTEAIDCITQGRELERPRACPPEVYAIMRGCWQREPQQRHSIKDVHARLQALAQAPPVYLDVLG

KM12 = assay: Cytotoxicity against human KM12 cells assessed as reduction in cell viability incubated for 72 hrs by resazurin based assay; format: functional; details: KM12, 72 h
[2] = Permeability of compound in human brain like endothelial cells BBB model at 10 uM after 120 mins by LC-MS analysis; format: ADME, cell-based; details: read-out: permeability (converted)
Aurora kinase A = Aurora kinase A (Homo sapiens, UniProt O14965); assay: Inhibition of Aurora A (unknown origin)
Aurora kinase B = Aurora kinase B (Homo sapiens, UniProt Q96GD4); assay: Inhibition of Aurora B (unknown origin)
[3] = target: Macrophage colony-stimulating factor 1 receptor (Homo sapiens, UniProt P07333); assay: Inhibition of CSF1R (unknown origin)
[4] = target: Mitogen-activated protein kinase kinase kinase kinase 4 (Homo sapiens, UniProt O95819); assay: Inhibition of MAP4K4 (unknown origin)
[5] = target: Epidermal growth factor receptor (Homo sapiens, UniProt P00533); assay: Inhibition of EGFR (unknown origin)
[6] = target: Serine/threonine-protein kinase Nek2 (Homo sapiens, UniProt P51955); assay: Inhibition of NEK2 (unknown origin)
[7] = target: T1, High affinity nerve growth factor receptor; assay: Inhibition of recombinant His-tagged human TRKA (441 to 796 residues) expressed in baculovirus expression system at 20 uM using 5-FAM-EEPLYWSFPAKKK-CONH2 as substrate preincubated for 1 hr followed by substrate addition in presence of ATP by mobility shift assay relative to control
Target sequence in this assay (P04629 33-796 limits assumed): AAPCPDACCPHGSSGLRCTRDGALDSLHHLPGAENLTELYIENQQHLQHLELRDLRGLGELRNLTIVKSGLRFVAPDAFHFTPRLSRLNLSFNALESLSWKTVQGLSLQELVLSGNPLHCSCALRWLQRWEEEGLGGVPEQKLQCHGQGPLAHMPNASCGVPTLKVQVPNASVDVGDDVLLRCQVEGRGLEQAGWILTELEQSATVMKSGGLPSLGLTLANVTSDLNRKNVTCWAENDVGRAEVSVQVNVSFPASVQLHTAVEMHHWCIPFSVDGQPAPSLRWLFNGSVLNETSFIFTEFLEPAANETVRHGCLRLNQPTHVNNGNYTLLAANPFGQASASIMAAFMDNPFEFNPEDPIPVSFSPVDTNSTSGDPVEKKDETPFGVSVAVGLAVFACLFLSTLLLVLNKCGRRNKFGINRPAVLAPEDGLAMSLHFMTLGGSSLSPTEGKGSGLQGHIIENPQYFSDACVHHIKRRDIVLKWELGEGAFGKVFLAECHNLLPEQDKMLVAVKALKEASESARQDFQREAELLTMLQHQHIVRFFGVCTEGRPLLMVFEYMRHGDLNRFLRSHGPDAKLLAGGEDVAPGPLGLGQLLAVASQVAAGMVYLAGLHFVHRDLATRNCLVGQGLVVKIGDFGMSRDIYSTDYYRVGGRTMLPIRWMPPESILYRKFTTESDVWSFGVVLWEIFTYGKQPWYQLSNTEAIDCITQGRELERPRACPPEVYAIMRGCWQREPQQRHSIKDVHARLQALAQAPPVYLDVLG

Mitogen-activated protein kinase kinase kinase kinase 4, sequence (O95819 whole entry): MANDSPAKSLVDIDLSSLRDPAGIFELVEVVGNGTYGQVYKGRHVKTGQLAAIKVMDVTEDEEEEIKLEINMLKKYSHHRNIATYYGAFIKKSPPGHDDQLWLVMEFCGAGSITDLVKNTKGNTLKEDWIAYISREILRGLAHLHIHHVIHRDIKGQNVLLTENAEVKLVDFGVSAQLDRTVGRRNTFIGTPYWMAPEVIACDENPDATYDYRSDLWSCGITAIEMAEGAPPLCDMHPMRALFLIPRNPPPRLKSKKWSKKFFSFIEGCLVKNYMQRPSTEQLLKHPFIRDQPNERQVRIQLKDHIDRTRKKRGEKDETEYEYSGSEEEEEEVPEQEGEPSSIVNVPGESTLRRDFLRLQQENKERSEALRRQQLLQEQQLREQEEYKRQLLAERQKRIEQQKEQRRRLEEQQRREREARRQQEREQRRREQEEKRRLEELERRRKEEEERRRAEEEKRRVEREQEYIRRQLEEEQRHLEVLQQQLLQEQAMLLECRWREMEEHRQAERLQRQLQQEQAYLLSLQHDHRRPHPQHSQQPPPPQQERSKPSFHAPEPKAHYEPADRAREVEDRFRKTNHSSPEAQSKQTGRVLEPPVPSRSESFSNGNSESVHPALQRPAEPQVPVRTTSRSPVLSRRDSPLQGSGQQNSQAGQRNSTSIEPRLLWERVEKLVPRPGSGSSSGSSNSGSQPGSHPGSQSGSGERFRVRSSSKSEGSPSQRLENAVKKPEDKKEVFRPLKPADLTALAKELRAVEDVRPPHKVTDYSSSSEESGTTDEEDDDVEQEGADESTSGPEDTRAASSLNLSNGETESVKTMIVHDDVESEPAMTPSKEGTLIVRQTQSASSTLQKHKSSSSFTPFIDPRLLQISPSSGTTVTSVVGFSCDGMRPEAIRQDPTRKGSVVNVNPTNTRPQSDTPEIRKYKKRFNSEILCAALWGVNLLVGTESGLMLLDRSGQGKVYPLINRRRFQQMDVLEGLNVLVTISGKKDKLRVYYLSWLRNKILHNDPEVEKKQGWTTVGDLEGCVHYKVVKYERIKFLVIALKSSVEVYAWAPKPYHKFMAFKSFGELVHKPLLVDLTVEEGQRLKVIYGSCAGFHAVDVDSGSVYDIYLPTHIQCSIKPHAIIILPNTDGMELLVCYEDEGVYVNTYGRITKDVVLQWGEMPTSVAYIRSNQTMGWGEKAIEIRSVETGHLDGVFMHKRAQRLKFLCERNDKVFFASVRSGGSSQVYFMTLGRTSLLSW
Epidermal growth factor receptor, sequence (P00533 whole entry): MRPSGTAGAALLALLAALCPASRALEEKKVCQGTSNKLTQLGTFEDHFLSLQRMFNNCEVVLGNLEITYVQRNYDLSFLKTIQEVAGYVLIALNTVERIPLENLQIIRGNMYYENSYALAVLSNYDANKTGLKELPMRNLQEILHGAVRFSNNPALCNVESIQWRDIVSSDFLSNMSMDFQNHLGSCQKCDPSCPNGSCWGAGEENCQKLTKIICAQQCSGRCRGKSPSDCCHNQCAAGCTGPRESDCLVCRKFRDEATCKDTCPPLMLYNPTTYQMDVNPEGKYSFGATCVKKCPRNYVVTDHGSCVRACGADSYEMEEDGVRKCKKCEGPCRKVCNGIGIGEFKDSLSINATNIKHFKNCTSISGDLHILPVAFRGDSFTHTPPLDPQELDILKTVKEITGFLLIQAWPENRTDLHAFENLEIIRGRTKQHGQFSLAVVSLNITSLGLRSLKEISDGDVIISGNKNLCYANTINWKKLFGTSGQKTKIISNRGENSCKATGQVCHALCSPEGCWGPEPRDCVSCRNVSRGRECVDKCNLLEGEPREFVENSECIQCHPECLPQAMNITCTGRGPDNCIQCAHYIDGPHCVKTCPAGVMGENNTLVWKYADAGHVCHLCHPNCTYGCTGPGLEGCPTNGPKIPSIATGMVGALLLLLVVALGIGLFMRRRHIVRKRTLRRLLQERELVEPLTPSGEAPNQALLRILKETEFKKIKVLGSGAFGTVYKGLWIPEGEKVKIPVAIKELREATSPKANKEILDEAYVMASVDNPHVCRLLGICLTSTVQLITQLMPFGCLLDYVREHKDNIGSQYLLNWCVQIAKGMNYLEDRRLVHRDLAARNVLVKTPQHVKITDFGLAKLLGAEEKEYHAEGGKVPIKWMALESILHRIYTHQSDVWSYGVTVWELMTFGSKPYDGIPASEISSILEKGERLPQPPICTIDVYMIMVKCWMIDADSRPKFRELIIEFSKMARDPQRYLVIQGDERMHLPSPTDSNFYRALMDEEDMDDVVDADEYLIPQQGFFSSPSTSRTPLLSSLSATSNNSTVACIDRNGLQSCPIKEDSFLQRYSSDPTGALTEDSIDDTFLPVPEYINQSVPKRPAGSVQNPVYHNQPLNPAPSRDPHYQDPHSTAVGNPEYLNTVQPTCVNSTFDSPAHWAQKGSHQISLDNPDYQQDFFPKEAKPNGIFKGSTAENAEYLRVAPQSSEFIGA
Aurora kinase A, sequence (O14965 whole entry): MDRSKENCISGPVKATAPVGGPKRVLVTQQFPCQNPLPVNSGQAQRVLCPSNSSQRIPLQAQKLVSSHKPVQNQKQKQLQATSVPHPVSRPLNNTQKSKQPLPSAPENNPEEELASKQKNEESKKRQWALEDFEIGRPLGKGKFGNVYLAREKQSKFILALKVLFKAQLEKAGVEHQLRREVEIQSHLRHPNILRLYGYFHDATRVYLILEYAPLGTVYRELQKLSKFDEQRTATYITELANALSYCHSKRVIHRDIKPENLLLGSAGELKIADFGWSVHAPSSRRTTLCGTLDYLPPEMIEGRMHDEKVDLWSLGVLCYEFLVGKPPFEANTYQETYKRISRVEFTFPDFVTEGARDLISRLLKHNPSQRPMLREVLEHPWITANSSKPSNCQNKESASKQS
Aurora kinase B, sequence (Q96GD4 whole entry): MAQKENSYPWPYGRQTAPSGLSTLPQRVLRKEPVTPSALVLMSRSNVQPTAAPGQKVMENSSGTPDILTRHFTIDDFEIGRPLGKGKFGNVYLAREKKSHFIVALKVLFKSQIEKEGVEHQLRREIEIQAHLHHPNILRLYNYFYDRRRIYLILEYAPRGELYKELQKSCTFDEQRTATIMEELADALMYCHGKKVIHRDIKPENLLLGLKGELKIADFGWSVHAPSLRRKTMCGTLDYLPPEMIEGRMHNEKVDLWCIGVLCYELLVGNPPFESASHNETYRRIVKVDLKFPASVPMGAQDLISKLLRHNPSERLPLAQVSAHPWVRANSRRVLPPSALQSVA

O=C(Cc1ccc(Nc2ncnc3ccsc23)cc1)N[C@H]1CCCC[C@@H]1O
IC50 [1]: 40.5 µM | IC50 (KM12): > 200 µM

C#Cc1cccc(NC(=O)Cc2ccc(Nc3ncnc4ccsc34)cc2)c1
IC50 [1]: 22.6 µM | IC50 (KM12): 38.8 µM

Cn1cc(-c2cc3ncnc(Nc4ccc(CC(=O)Nc5cc(C(C)(C)C)nn5C)cc4)c3s2)cn1
Papp at 2 h, 10 µM [2]: 505 nm/s | IC50 (Aurora kinase A): 0.893 µM | IC50 (Aurora kinase B): 1.99 µM | IC50 [3]: 13.6 µM | IC50 [4]: 41.5 µM | IC50 [5]: 176 µM | IC50 [6]: > 200 µM

CS(=O)(=O)c1ccc(-c2cc3ncnc(Nc4ccc(CC(=O)Nc5ccc(F)c(Cl)c5)cc4)c3s2)cc1
IC50 [1]: 200 µM

CC(C)(C)c1cc(NC(=O)Cc2ccc(-c3ncnc4ccsc34)cc2)no1
inhibition [7]: 18% | IC50 (KM12): 86.5 µM

Fc1ccc(Nc2ncnc3ccsc23)cc1
inhibition [7]: 17.4% | IC50 (KM12): 133 µM

CN1CCN(c2ccc(C(=O)Nc3n[nH]c4ccc(Cc5cc(F)cc(F)c5)cc34)c(NC3CCOCC3)c2)CC1 [ENTRECTINIB]
Papp at 2 h, 10 µM [2]: 170 nm/s | IC50 (KM12): 0.012 µM
